Assay results from patent publication US4868207A, “Bis (methylenedioxy) biphenyl compounds useful for the treatment of liver diseases” (priority 1988, dated 1989).
“Also recorded” adds a separate entry of the source.

Columns and labels:
Assay type in all cases: in vivo
[1] = tested on: acetaminophen-intoxicated mice; experiment: Effect on SGPT, SGOT and liver triglyceride levels in acetaminophen-intoxicated mice; settings: for Liver triglyceride / SGPT / SGOT: oral; for Liver triglyceride: control 57.4 ± 18.3; for SGPT / SGOT: ± SD; for SGPT: control 1504 ± 330; for SGOT: control 1695 ± 390
Excerpt: (§1) Throughout the following experiments, male mice weighing 18-22 g were used, and unless otherwise indicated, the compound of the present invention [6-methoxycarbonyl-6'-hydroxymethyl-2,3,2',3'-bis(methylenedioxy)-4,4'-dimethoxybiphenyl (hereinafter referred to as "Compound 1")]]and DDB of a comparative drug are each suspended in 2% of Tween-80 before administered orally.
(B) Effect on SGPT, SGOT and liver triglyceride levels in acetaminophen-intoxicated mice
Thirty six mice were divided equally into 4 groups. On the first day, one group was given 2% of Tween-80 as control, while other groups were each given two doses of Compound 1 at an interval of 8 hours. All mice were injected i.p. 110 mg/kg of acetaminophen 16 hours after the last administration of Compound 1. After fasting overnight, all mice were decapited. SGPT, SGOT and liver triglyceride levels were determined.

[2] = tested on: carbon tetrachloride-intoxicated mice; experiment: Effect on SGPT and SGOT levels in carbon tetrachloride-intoxicated mice; settings: for SGOT / SGPT: oral, ± SD; for SGOT: control 2087 ± 131; for SGPT: control 3110 ± 50
Excerpt: as §1
Effect on SGPT and SGOT levels in carbon tetrachloride-intoxicated mice (9 mice per group)
(§2) Each group consisted of nine mice. The treated groups of mice were given three doses of Compound 1 twice at an interval of 8 hours on the first day, while one group was given corresponding volume of 2% of Tween-80 as control. At 4 p.m. of the second day, all mice were given i.p. 10 ml/kg of 0.1% of carbon tetrachloride in peanut oil. After a 16 hour fasting, all mice were sacrificed by decapitation. Serum transaminase (SGPT, SGOT) levels were determined.

male kunming strain mice = experiment: Acute toxicity; settings: 3 g/20 ml/kg and 6 g/20 ml/kg, oral
Protocol: Ten male kunming strain mice weighing 18-20 g were used, and starved overnight. Compound 1 was suspened in 0.2% CMC-Na, and 5 mice were given orally compound 1 in a dose of 3 g/20 ml/kg. The other 5 mice were given 6 g/20 ml/kg.

[3] = tested on: mortality induced by acetaminophen in mice; experiment: Effect on mortality induced by acetaminophen in mice; settings: 200 mg/kg
Excerpt: as §1
(C) Effect on mortality induced by acetaminophen in mice (14 mice per group)
Each group consisted of 14 mice. The procedure of the treatment was the same as mentioned in the item (B). All mice were given i.p. 400 mg/kg of acetaminophen 24 hours after the second dose of Compound 1. Survival numbers of mice were recorded within 5 days.

drug metabolism enzyme = experiment: Effect on pentobarbital sleeping time in mice; settings: for Sleeping time: 200 mg/kg oral, ± SD, control 49 ± 22
Protocol: (E) Effect on pentobarbital sleeping time in mice (10 mice per group)
Three groups of 10 mice were used in this experiment. […] The mice of control were given physiological saline. The interval between the lose and return of righting reflex of each mouse was recorded as sleeping time.

[4] = tested on: thioacetamide-intoxicated mice; experiment: Effect on SGPT, SGOT and liver triglyceride levels in thioacetamide-intoxicated mice; settings: for Liver triglyceride / SGOT / SGPT: oral; for Liver triglyceride: control 104 ± 35; for SGOT / SGPT: ± SD; for SGOT: control 1174 ± 435, Compound 1 P < 0.001; for SGPT: control 2365 ± 1045, Compound 1 P < 0.05
Excerpt: as §1, §2
(D) Effect on SGPT, SGOT and liver triglyceride levels in thioacetamide-intoxicated mice (9 mice per group)
Each group consisted of nine mice. The procedure of this experiment was just the same as mentioned in carbon tetrachloride-hepatotoxicity test. Only 50 mg/kg of thioacetamide was instread of carbon tetrachloride.

[5] = 200 mg/kg (DDB 200 mg/mg [sic])
[6] = 200 mg/kg (DDB 200 mg/mg [sic]), Compound 1 P < 0.001
[7] = 200 mg/kg (DDB 200 mg/mg [sic]), DDB P < 0.05, Compound 1 P < 0.001
[8] = 200 mg/kg, DDB P < 0.05, Compound 1 P < 0.001
[9] = 1 hr before pentobarbital 50 mg/kg i.p., P DDB <0.05, Compound 1 <0.001
[10] = 24 hrs before pentobarbital 50 mg/kg i.p., P DDB <0.01, Compound 1 <0.001

SMILES: COC(=O)c1cc(OC)c2c(c1-c1c(CO)cc(OC)c3c1OCO3)OCO2 [Compound 1, 6-methoxycarbonyl-6'-hydroxymethyl-2,3,2',3'-bis(methylenedioxy)-4,4'-dimethoxybiphenyl]
- Liver triglyceride ([1]; 100 mg/kg): 52.0 ± 13.8 mg/kg
- SGPT ([1]; 100 mg/kg, P < 0.05): 935 ± 660 u/dl
- SGOT ([1]; 100 mg/kg, P < 0.05): 1000 ± 651 u/dl
- Liver triglyceride [1, 5]: 50.0 ± 27.6 mg/kg
- SGPT [1, 6]: 550 ± 495 u/dl
- SGOT [1, 7]: 565 ± 522 u/dl
- lowering SGPT and SGOT levels elevated by acetaminophen ([1]; 200 mg/kg, 100 mg/kg, result in words): effective in lowering SGPT and SGOT levels
- liver lesions such as inflammation and necrosis ([1]; result in words): ameliorated
- liver triglyceride level elevated by acetaminophen ([1]; result in words): reduced
- protective effect against hepatotoxicity induced by acetaminophen ([1]; result in words): protective effect against hepatotoxicity
- SGOT ([2]; 50 mg/kg, 9 mice per group): 1826 ± 203 u/dl
- SGPT ([2]; 50 mg/kg, 9 mice per group): 2523 ± 273 u/dl
- SGOT ([2]; 100 mg/kg): 1739 ± 192 u/dl
- SGPT ([2]; 100 mg/kg, Compound 1 P < 0.01): 2126 ± 371 u/dl
- SGPT level ([2]; 100 mg/kg, result in words): markedly decreased
- SGOT ([2]; 200 mg/kg, Compound 1 P < 0.01): 1362 ± 148 u/dl
- SGPT [2, 8]: 947 ± 236 u/dl
- SGOT level vs carbon tetrachloride control ([2]; 200 mg/kg, result in words): significantly lowered
- SGPT level vs carbon tetrachloride control ([2]; 200 mg/kg, result in words): significantly lowered
- protection against carbon tetrachloride hepatotoxicity ([2]; result in words): protective effect against hepatotoxicity; also recorded: effective in protection against carbon tetrachloride hepatotoxicity
- death (male kunming strain mice; within 2 weeks): no death occured
- change of the behavior of the mice (male kunming strain mice; within 48 hours): No noticeable change of the behavior of the mice
- Number of survival ([3]; 400 mg/kg acetaminophen i.p., of 14 mice, within 5 days, control 3): 11
- Mortality ([3]; 400 mg/kg acetaminophen i.p., within 5 days, control 78): 21%
- mortality of mice induced by acetaminophen ([3]; result in words): significantly decreased
- Sleeping time (drug metabolism enzyme; [9]): 214 ± 85 min
- Sleeping time (drug metabolism enzyme; [10]): 20 ± 8 min
- pentobarbital sleeping time (drug metabolism enzyme; 200 mg/kg, one hour before pentobarbital, result in words): significantly prolonged
- pentobarbital sleeping time (drug metabolism enzyme; 24 hours prior to pentobarbital, result in words): markedly shortened
- action on drug metabolism enzyme (drug metabolism enzyme; indirectly indicated by sleeping time, result in words): inductive action on drug metabolism enzyme; also recorded: increases the activity of drug metabolism enzymes
- Liver triglyceride ([4]; 200 mg/kg): 115 ± 31 mg/kg
- SGOT ([4]; 200 mg/kg): 565 ± 130 u/dl
- SGPT ([4]; 200 mg/kg): 1430 ± 550 u/dl
- lowering SGPT and SGOT levels elevated by thioacetamide ([4]; 200 mg/kg, result in words): effective in lowering SGPT and SGOT levels
- protective effect against hepatotoxicity induced by thioacetamide ([4]; result in words): protective effect against hepatotoxicity

SMILES: COC(=O)c1cc(OC)c2c(c1-c1c(C(=O)OC)cc(OC)c3c1OCO3)OCO2 [DDB, dimethyl 4,4'-dimethoxy-5,6,5',6'-dimethylenedioxybiphenyl-2,2'-dicarboxylate, reference compound]
- Liver triglyceride [1, 5]: 56.2 ± 27.6 mg/kg
- SGPT [1, 6]: 1100 ± 660 u/dl
- SGOT [1, 7]: 1130 ± 651 u/dl
- SGOT ([2]; 50 mg/kg, 9 mice per group): 1922 ± 174 u/dl
- SGPT ([2]; 50 mg/kg, 9 mice per group): 2701 ± 243 u/dl
- SGOT ([2]; 100 mg/kg): 2019 ± 130 u/dl
- SGPT ([2]; 100 mg/kg, Compound 1 P < 0.01): 2965 ± 221 u/dl
- SGOT ([2]; 200 mg/kg, Compound 1 P < 0.01): 1700 ± 185 u/dl
- SGPT [2, 8]: 2303 ± 318 u/dl
- Sleeping time (drug metabolism enzyme; [9]): 91 ± 57 min
- Sleeping time (drug metabolism enzyme; [10]): 23 ± 10 min
- Liver triglyceride ([4]; 200 mg/kg): 135 ± 46 mg/kg
- SGOT ([4]; 200 mg/kg): 1217 ± 261 u/dl
- SGPT ([4]; 200 mg/kg): 2035 ± 770 u/dl
